The structures appear in SMILES notation.

The experiment concerns HSP72 in SK-OV-3 cells. Briefly: Cell-based ELISA (Cellisa) assay, SK-OV-3 cells: inhibition of 17-AAG-induced HSP72. To be noted: Homo sapiens; SK-OV-3 cells (Examples 169-218). As for the experimental part: U2OS cells (5-8×10^4 cells/mL) or SK-OV-3 cells (5-8×10^4 cells/mL) were seeded into 96-well plates and incubated at 37° C. for 48 h. Compounds were then added at a range of concentrations and incubated for 1 h before addition of 17-AAG (250 nM). Cells were then incubated for 18 h. The medium was removed washed 2× with PBS and cells were then fixed with fixing solution (4% paraformaldehyde, 0.3% TritonX-100 in PBS) for 30 min at 4° C. The plates were then washed 2× with PBS before blocking with 5% milk for 30 min at 37° C. After washing the plates 4× with 0.1% Tween-20/deionised water, HSP72 antibody (SPA-810, Enzo Life) was added for 1.5 h at 37° C. Following 4× washes, the plates were incubated with europium-labelled anti-mouse antibody (0.6 ug/ml) in Delfia assay buffer (Perkin Elmer) for 1 h at 37° C. After washing the plates, Delfia enhancement solution was added, shaken for 10 min before reading in the Envision plate reader (Perkin-Elmer) with excitation at 340 nm and emission at 615 nm. The plates were washed again before protein determination using the bicinchoninic acid assay (BCA assay, Pierce Biotechnology). The europium counts were normalised for the amount of protein in each well. The 50% inhibitory concentration value of the compound was then calculated.
The IC50 is the point on the concentration scale where inhibition reaches its midpoint. Compound `O=C(Nc1ccc(Br)c(NC(=O)c2ccc3nc(CN4CCC4)ccc3c2)c1)c1ccc2c(c1)OCCO2` [Example 216, 2-(azetidin-1-ylmethyl)-N-(2-bromo-5-(2,3-dihydrobenzo[b][1,4]dioxine-6-carboxamido)phenyl)quinoline-6-carboxamide] had an IC50 of 55 nM.
In the case of `O=C(Nc1ccc(F)c(NC(=O)c2ccc3nc(CN4CCCC4)ccc3c2)c1)c1ccc2c(c1)OCCO2` [Example 170, N-(5-(2,3-dihydrobenzo[b][1,4]dioxine-6-carboxamido)-2-fluorophenyl)-2-(pyrrolidin-1-ylmethyl)quinoline-6-carboxamide], the IC50 was found to be 379 nM. This IC50 lies about 6.9-fold higher than the previous one.
With `CC1(C)CN(Cc2ccc3cc(C(=O)Nc4cc(NC(=O)c5ccc6c(c5)OCCO6)ccc4F)ccc3n2)C1` [Example 183, N-(5-(2,3-dihydrobenzo[b][1,4]dioxine-6-carboxamido)-2-fluorophenyl)-2-((3,3-dimethylazetidin-1-yl)methyl)quinoline-6-carboxamide] the figure was 131 nM.
With `O=C(Nc1ccc(F)c(NC(=O)c2ccc3nc(OCCCN4CCCC4)ccc3c2)c1)c1ccc2c(c1)OCCO2` [Example 187, N-(5-(2,3-dihydrobenzo[b][1,4]dioxine-6-carboxamido)-2-fluorophenyl)-2-(3-(pyrrolidin-1-yl)propoxy)quinoline-6-carboxamide] the figure was 10 nM.
With `CC(C)N1CCN(Cc2ccc3cc(C(=O)Nc4cc(NC(=O)c5ccc6c(c5)OCCO6)ccc4Cl)ccc3n2)CC1` [Example 197, N-(2-chloro-5-(2,3-dihydrobenzo[b][1,4]dioxine-6-carboxamido)phenyl)-2-((4-isopropylpiperazin-1-yl)methyl)quinoline-6-carboxamide] the figure was 43 nM.
`O=C(Nc1ccc(F)c(NC(=O)c2ccc3nc(CN4CCN(C5CC5)CC4)ccc3c2)c1)c1ccc2c(c1)OCCO2` [Example 178, 2-((4-cyclopropylpiperazin-1-yl)methyl)-N-(5-(2,3-dihydrobenzo[b][1,4]dioxine-6-carboxamido)-2-fluorophenyl)quinoline-6-carboxamide]: the IC50 turned out to be 44 nM.
With `CCN1C[C@@H]2C[C@H]1CN2Cc1ccc2cc(C(=O)Nc3cc(NC(=O)c4ccc5c(c4)OCCO5)ccc3F)ccc2n1` [Example 180, N-(5-(2,3-dihydrobenzo[b][1,4]dioxine-6-carboxamido)-2-fluorophenyl)-2-(((1S,4S)-5-ethyl-2,5-diazabicyclo[2.2.1]heptan-2-yl)methyl)quinoline-6-carboxamide] the figure was 208 nM; with `CC1CN(Cc2ccc3cc(C(=O)Nc4cc(NC(=O)c5ccc6c(c5)OCCO6)ccc4Cl)ccc3n2)C1` [Example 200, N-(2-chloro-5-(2,3-dihydrobenzo[b][1,4]dioxine-6-carboxamido)phenyl)-2-((3-methylazetidin-1-yl)methyl)quinoline-6-carboxamide], 84 nM.
`O=C(Nc1ccc(Cl)c(NC(=O)c2ccc3nc(CN4CCC4)ccc3c2)c1)c1ccc2c(c1)OCCO2` [Example 199, 2-(azetidin-1-ylmethyl)-N-(2-chloro-5-(2,3-dihydrobenzo[b][1,4]dioxine-6-carboxamido)phenyl)quinoline-6-carboxamide] had an IC50 of 85 nM.
Next, `O=C(Nc1ccc(F)c(NC(=O)c2ccc3nc(CN4CCNCC4)ccc3c2)c1)c1ccc2c(c1)OCCO2` [Example 174, N-(5-(2,3-dihydrobenzo[b][1,4]dioxine-6-carboxamido)-2-fluorophenyl)-2-(piperazin-1-ylmethyl)quinoline-6-carboxamide]: 78 nM; `Cc1ccc(NC(=O)c2ccc3c(c2)OCCO3)cc1NC(=O)c1ccc2nc(CN3CCC3)ccc2c1` [Example 203, 2-(azetidin-1-ylmethyl)-N-(5-(2,3-dihydrobenzo[b][1,4]dioxine-6-carboxamido)-2-methylphenyl)quinoline-6-carboxamide]: 23 nM.

These data come from patent publication US9701664B2, “Fused 1,4-dihydrodioxin derivatives as inhibitors of heat shock transcription factor 1” (Cancer Research Technology Limited, priority 2013, dated 2017).
